Assay results: patent US4797280A, “Antibiotics produced by Kibdelosporangium aridum Shearer gen. nov., sp. nov. ATCC 39323” (SmithKline Beckman Corporation, priority 1986, dated 1989)

What was measured:
[1] = tested on: rumen fluid from dairy cows; assay: Rumen in vitro experiment with dairy cow rumen fluid; conditions: about 23 hours
Protocol: A similar experiment was carried out using rumen fluid from dairy cows fed a typical dairy cow diet of two parts corn silage and three parts dairy concentrate. Specifically, strained rumen fluid (10 ml) was obtained, from an animal fed two hours earlier, via cannula and was mixed with 10 ml of a nutrient broth comprising a 2:3 mix of corn silage and dairy concentrate. After adding a selected growth promotant, the mixture was incubated at 39° C. for about 23 hours, with oscillation.

Kibdelosporangium aridum = assay: Susceptibility of K. aridum to antibiotics, disk diffusion; assay type: cell-based; conditions: disk 10 μg, 28° C., one week
Protocol: Susceptibility of K. aridum to antibiotics was examined by placing BBL susceptibility disks on nutrient agar plates seeded with K. aridum as an overlay. Diameters of the zones of inhibition were measured after incubation for one week at 28° C.
Susceptibility to Antibiotics. […] Chlortetracycline ([…]) produced 18 mm zones of inhibition; tetracycline (5 μg) 11-12 mm zones; rifampin (5 μg) 11-15 mm zones; novobiocin (5 μg) 27-28 mm zones. All zones of inhibition contained at least a few resistant colonies.

With Saloinomycin the “% PR” value ([1]; 0.5 ppm) was 126% OF CONTROL, the ACE ([1]; 0.5 ppm) was 95% OF CONTROL and the AMO ([1]; 0.5 ppm) was 117% OF CONTROL. It also gave a BUT ([1]; 0.5 ppm) of 83% OF CONTROL, a DLAC ([1]; 0.5 ppm) of 0% OF CONTROL and an ETOH ([1]; 0.5 ppm) of 0% OF CONTROL. The GLU ([1]; 0.5 ppm) was 0% OF CONTROL, the IBU ([1]; 0.5 ppm) was 153% OF CONTROL and the IVA ([1]; 0.5 ppm) was 110% OF CONTROL. It also gave an LLAC ([1]; 0.5 ppm) of 0% OF CONTROL, an LYS ([1]; 0.5 ppm) of 119% OF CONTROL and an NH--N ([1]; 0.5 ppm) of 136% OF CONTROL. For the same compound, the PRO ([1]; 0.5 ppm) was 124% OF CONTROL, the TOTAL ([1]; 0.5 ppm) was 99% OF CONTROL and the VAL ([1]; 0.5 ppm) was 94% OF CONTROL. For the same compound, the “% PR” value ([1]; 5 ppm) was 152% OF CONTROL, the ACE ([1]; 5 ppm) was 99% OF CONTROL and the AMO ([1]; 5 ppm) was 226% OF CONTROL. For the same compound, the BUT ([1]; 5 ppm) was 66% OF CONTROL, the DLAC ([1]; 5 ppm) was 0% OF CONTROL and the ETOH ([1]; 5 ppm) was 0% OF CONTROL. It also gave a GLU ([1]; 5 ppm) of 0% OF CONTROL, an IBU ([1]; 5 ppm) of 108% OF CONTROL and an IVA ([1]; 5 ppm) of 75% OF CONTROL. For the same compound, the LLAC ([1]; 5 ppm) was 0% OF CONTROL, the LYS ([1]; 5 ppm) was 117% OF CONTROL and the NH--N ([1]; 5 ppm) was 116% OF CONTROL. The PRO ([1]; 5 ppm) was 148% OF CONTROL, the TOTAL ([1]; 5 ppm) was 98% OF CONTROL and the VAL ([1]; 5 ppm) was 83% OF CONTROL. For the same compound, the “% PR” value ([1]; 50 ppm) was 188% OF CONTROL, the ACE ([1]; 50 ppm) was 76% OF CONTROL and the AMO ([1]; 50 ppm) was 268% OF CONTROL. For the same compound, the BUT ([1]; 50 ppm) was 63% OF CONTROL, the DLAC ([1]; 50 ppm) was 0% OF CONTROL and the ETOH ([1]; 50 ppm) was 0% OF CONTROL. The GLU ([1]; 50 ppm) was 0% OF CONTROL, the IBU ([1]; 50 ppm) was 61% OF CONTROL and the IVA ([1]; 50 ppm) was 46% OF CONTROL. It also gave an LLAC ([1]; 50 ppm) of 0% OF CONTROL, an LYS ([1]; 50 ppm) of 114% OF CONTROL and an NH--N ([1]; 50 ppm) of 82% OF CONTROL. For the same compound, the PRO ([1]; 50 ppm) was 168% OF CONTROL, the TOTAL ([1]; 50 ppm) was 89% OF CONTROL and the VAL ([1]; 50 ppm) was 60% OF CONTROL.
With `NC[C@H]1O[C@H](O[C@H]2[C@H](O)[C@@H](O[C@H]3O[C@H](CO)[C@@H](O)[C@H](N)[C@H]3O)[C@H](N)C[C@@H]2N)[C@H](N)C[C@@H]1O` [tobramycin] the “Susceptibility of K. aridum” value (Kibdelosporangium aridum) was “resistant”.
In the case of `CC[C@@H](C(=O)[C@@H](C)[C@@H](O)[C@H](C)CCc1ccc(C)c(O)c1C(=O)O)[C@H]1O[C@](CC)([C@H]2CC[C@](O)(CC)[C@H](C)O2)C[C@@H]1C` [Lasalocid], the “% PR” value ([1]; 0.5 ppm) is reported as 114% OF CONTROL, the ACE ([1]; 0.5 ppm) is reported as 95% OF CONTROL and the AMO ([1]; 0.5 ppm) is reported as 93% OF CONTROL. The BUT ([1]; 0.5 ppm) was 94% OF CONTROL, the DLAC ([1]; 0.5 ppm) was 0% OF CONTROL and the ETOH ([1]; 0.5 ppm) was 0% OF CONTROL. The GLU ([1]; 0.5 ppm) was 0% OF CONTROL, the IBU ([1]; 0.5 ppm) was 119% OF CONTROL and the IVA ([1]; 0.5 ppm) was 102% OF CONTROL. The LLAC ([1]; 0.5 ppm) was 0% OF CONTROL, the LYS ([1]; 0.5 ppm) was 106% OF CONTROL and the NH--N ([1]; 0.5 ppm) was 106% OF CONTROL. For the same compound, the PRO ([1]; 0.5 ppm) was 112% OF CONTROL, the TOTAL ([1]; 0.5 ppm) was 99% OF CONTROL and the VAL ([1]; 0.5 ppm) was 87% OF CONTROL. The “% PR” value ([1]; 5 ppm) was 136% OF CONTROL, the ACE ([1]; 5 ppm) was 109% OF CONTROL and the AMO ([1]; 5 ppm) was 198% OF CONTROL. It also gave a BUT ([1]; 5 ppm) of 79% OF CONTROL, a DLAC ([1]; 5 ppm) of 0% OF CONTROL and an ETOH ([1]; 5 ppm) of 0% OF CONTROL. For the same compound, the GLU ([1]; 5 ppm) was 0% OF CONTROL, the IBU ([1]; 5 ppm) was 164% OF CONTROL and the IVA ([1]; 5 ppm) was 91% OF CONTROL. The LLAC ([1]; 5 ppm) was 0% OF CONTROL, the LYS ([1]; 5 ppm) was 130% OF CONTROL and the NH--N ([1]; 5 ppm) was 131% OF CONTROL. For the same compound, the PRO ([1]; 5 ppm) was 144% OF CONTROL, the TOTAL ([1]; 5 ppm) was 106% OF CONTROL and the VAL ([1]; 5 ppm) was 90% OF CONTROL. For the same compound, the “% PR” value ([1]; 50 ppm) was 186% OF CONTROL, the ACE ([1]; 50 ppm) was 65% OF CONTROL and the AMO ([1]; 50 ppm) was 278% OF CONTROL. The BUT ([1]; 50 ppm) was 62% OF CONTROL, the DLAC ([1]; 50 ppm) was 0% OF CONTROL and the ETOH ([1]; 50 ppm) was 0% OF CONTROL. For the same compound, the GLU ([1]; 50 ppm) was 0% OF CONTROL, the IBU ([1]; 50 ppm) was 51% OF CONTROL and the IVA ([1]; 50 ppm) was 41% OF CONTROL. For the same compound, the LLAC ([1]; 50 ppm) was 0% OF CONTROL, the LYS ([1]; 50 ppm) was 150% OF CONTROL and the NH--N ([1]; 50 ppm) was 78% OF CONTROL. It also gave a PRO ([1]; 50 ppm) of 151% OF CONTROL, a TOTAL ([1]; 50 ppm) of 81% OF CONTROL and a VAL ([1]; 50 ppm) of 53% OF CONTROL.
